Test: Kidney concentrations until one week after single oral administration
Assay type: in vivo
Conditions: Sprague-Dawley (SD/IGS), rat, male Sprague-Dawley rats; for concentration at 24 h / concentration at 72 h / concentration at 168 h: single oral 1 mg/kg
Method: (1) Changes in Kidney Concentrations of Compounds Disclosed in WO07/136116 Until One Week After Oral Administration
SD/IGS rats at 7 weeks of age (male, non-fasting, Charles River Laboratories Japan Inc.) were orally administered with compound 10 or 33 (1 mg/kg) or compound 11 (0.3 mg/kg) prepared in a 0.5% aqueous CMC solution. At 24, 72 and 168 hours after drug administration, the rats were exsanguinated via the postcaval vein under ether anesthesia, and their kidneys were excised after they were confirmed to be euthanized. After the tissue surface was washed with physiological saline, each tissue was measured for its weight and homogenized in 4 volumes of purified water under ice cooling. To each homogenate, an acetonitrile/methanol solution containing an internal standard substance was added to remove proteins, and the supernatant was then subjected to LC-MS/MS (Applied Biosystems API3000). Drug-derived ions generated by electrospray ionization in positive ion mode were detected by selective reaction monitoring. The peak area of the resulting extracted ion chromatogram was analyzed by the internal standard method to calculate the drug concentration in the homogenate.
The internal standard substance used for compounds 10 and 33 was (1S)-1,5-anhydro-1-[5-(4-ethoxybenzyl)-2-methoxy-4-methylphenyl]-1-thio-D-glucitol,ethyl-D5, while the internal standard substance used for compound 11 was compound 11 (trishydroxymethyl-D6; —C(CD2OH)3).

[1] = read-out: Concentration of compounds in kidney After 1 day
[2] = read-out: Concentration of compounds in kidney After 3 days
[3] = read-out: Concentration of compounds in kidney After 7 days

Row | concentration at 24 h [1] [ng/g] | concentration at 72 h [2] [ng/g] | concentration at 168 h [3] [ng/g] | concentration at 1 day (single oral 0.3 mg/kg, mean ± S.D., read-out: Concentration of compounds in kidney After 1 day) [ng/g] | concentration at 3 days (single oral 0.3 mg/kg, mean ± S.D., read-out: Concentration of compounds in kidney After 3 days) [ng/g] | concentration at 7 days (single oral 0.3 mg/kg, mean ± S.D., read-out: Concentration of compounds in kidney After 7 days) [ng/g] | SMILES
1 | 29.8 ± 6.79 | 25.5 ± 8.68 | 16.2 ± 3.11 | – | – | – | Cc1cc(O)c([C@@H]2O[C@H](CO)[C@@H](O)[C@H](O)[C@H]2O)cc1Cc1ccc(CCNC(=O)NC2CCN(Cc3ccccc3)CC2)cc1 [compound 33]
2 | 167 ± 36.3 | 124 ± 21.2 | 53.8 ± 7.61 | – | – | – | Cc1cc(O)c([C@@H]2O[C@H](CO)[C@@H](O)[C@H](O)[C@H]2O)cc1Cc1ccc(CCNC(=O)NC(C)(C)CO)cc1 [compound 10]
3 | – | – | – | 63.5 ± 20.1 | 67.3 ± 3.15 | 48.7 ± 18.3 | Cc1cc(O)c([C@@H]2O[C@H](CO)[C@@H](O)[C@H](O)[C@H]2O)cc1Cc1ccc(CCNC(=O)NC(CO)(CO)CO)cc1 [compound 11]

Reference: patent US8466113B2, “4-isopropylphenyl glucitol compounds as SGLT1 inhibitors” (Taisho Pharmaceutical Co., Ltd., priority 2009, dated 2013)
